Eight molecules from patent US5607544A, “Process and agent for the oxidative bleaching of wood pulp and for deinking waste paper” (BK Ladenburg GmbH fur Chemische Erzeugnisse, priority 1994, dated 1997) can be followed below.

The term inhibition denotes how much of the control response was suppressed. A low value points to little suppression.

Data set [1] concerns catalase. Put plainly: Catalase test: pressure increase after hydrogen peroxide addition to deinking process water of a paper factory. The data set is classed as biochemical. As to conditions: 0.1% hydrogen peroxide. On the procedure: (§1) The catalase test depends upon the measurement of the increase of the pressure in an airtight-closed vessel after the introduction of 0.1% hydrogen peroxide. With increasing concentration of catalase in a sample, the pressure to be measured increases correspondingly. The pressure is given as an electric signal in relative units (mV). The pressure increase is measured after 10 minutes.

Data set [2] concerns the target T1, enzyme catalase (No. C10 Sigma catalogue) (Bos taurus, UniProt P00432).
T1 construct: purchased Sigma C10
T1 sequence (P00432 2-527 limits assumed): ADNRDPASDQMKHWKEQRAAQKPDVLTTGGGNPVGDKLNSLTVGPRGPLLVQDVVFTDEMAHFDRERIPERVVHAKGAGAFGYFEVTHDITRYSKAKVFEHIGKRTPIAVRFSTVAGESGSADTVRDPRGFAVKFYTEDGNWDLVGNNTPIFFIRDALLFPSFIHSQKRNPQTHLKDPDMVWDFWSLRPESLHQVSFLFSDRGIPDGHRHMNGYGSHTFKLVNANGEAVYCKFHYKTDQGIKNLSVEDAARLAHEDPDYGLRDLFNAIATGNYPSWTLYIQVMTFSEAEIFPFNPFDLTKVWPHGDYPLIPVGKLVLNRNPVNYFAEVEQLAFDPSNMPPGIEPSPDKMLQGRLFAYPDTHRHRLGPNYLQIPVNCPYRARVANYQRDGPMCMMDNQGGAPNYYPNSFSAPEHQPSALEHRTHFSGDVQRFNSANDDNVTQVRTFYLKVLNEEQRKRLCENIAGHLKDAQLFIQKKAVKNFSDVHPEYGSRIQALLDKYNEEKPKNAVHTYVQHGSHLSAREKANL
As to the kind of experiment: Action on the pure enzyme catalase, absorption decrease at 240 nm. The data set is classed as biochemical. On the procedure:
phosphate buffer 0.05M, pH 7.0 (K2 HPO4 : 8.7 g/l; KH2 PO4 : 6.8 g/l)
enzyme catalase (No. C10 Sigma catalogue)
substrate hydrogen peroxide (30%).
Dissolve catalase in 0.05M phosphate buffer.
Concentration: 50 sigma units per ml of buffer.
Dissolve 0.1 ml 30% hydrogen peroxide in 50 ml of 0.05M phosphate buffer (control) or in 50 ml phosphate buffer which contains the stabiliser (substrate). Measure the absorption at 240 nm. The result must lie between 0.550 and 0.520. Possibly dilute the solution or add more hydrogen peroxide thereto.
2.9 ml of solution B are placed in a quartz cuvette and subsequently mixed with 0.1 ml of solution A. The absorption at 240 nm should, at the beginning of the measurement, amount to approximately 0.450. The time needed for the decrease of the absorption at 240 nm from 0.450 to 0.400 is determined. This time corresponds to the conversion of 3.45 μmol hydrogen peroxide in 3 ml of sample volume.
(sigma units total)=3.45: time (minutes calculating back to active sigma units 1 sigma unit reacts 1.0 μmol hydrogen peroxide per minute (at pH 7.0; 25° C.).

The subject of data set [3] is catalase. Put plainly: Pressure increase after hydrogen peroxide addition to process water 3 (rate of decomposition of peroxide). The data set is classed as biochemical. The note with it: 400 ppm referred to process water volume, 0.1% hydrogen peroxide, after 10 minutes, ambient temperature, 0 sample 9.8. On the procedure: as §1
As sample, there was used process water 3 and worked up analogously to Example 1. After the addition of 0.1% hydrogen peroxide (referred to 100% hydrogen peroxide), there was measured the pressure increase in relative pressure units (in mV) after 10 minutes. The measurement took place at ambient temperature.

A short description of data set [4]: Residual peroxide content by iodometric titration in deinking process water samples. The source says:
The measurement of the residual peroxide content took place by iodometric titration.
The initial peroxide content corresponds to 100% (=0.1% hydrogen peroxide (100%)).

Data set [5] is described as follows: Laboratory deinking experiment with process water 1 (whiteness, flotate, ash, residual peroxide). As to conditions: 0 sample 15.7%. On the procedure: Into 1 liter of water of 30° dH (tap water) are introduced:
(§2) Into the pulper (2800 r.p.m.) are introduced 50 g of atro waste paper and the chemical solution is subsequently introduced. The pulping time is 10 minutes. After ending of the brushing out time, the paper slurry is shaken out into a glass beaker, stirred up with a commercially available ultrasonic disperser and the pH value determined.
The pH value is 9.5±0.2. 100 ml are taken from the brushed out suspension and a sheet formed (degree of whiteness and brightness before the flotation).
(§3) The remaining fibre material is placed for 110 minutes in a waterbath with a temperature of 50° C. After the residence time, it is dispersed with a disperser for 1 minute at 10,000 r.p.m. The paper slurry is emptied into a flotation cell which is filled with water with a temperature of 50° C. There is thereby adjusted a material density of 0.8% (pH value 8.5). Air is introduced into the cell at a rate of 60 liters/hour and the speed of stirring is 1000 r.p.m. The flotation time is 10 minutes, foam being skimmed off manually. After the flotation is ended, acidification is carried out with sulphuric acid to pH 5 and sheets are formed.
The brightness and degree of whiteness are measured on the front and rear side and the average value determined.
R 457: reflection factor at 457 nm wavelength
Y/C: standard type of light C/1931
Process water 1 was used. The statements of percentage refer to the commercial product and the residual peroxide was determined by a titration method.

The nature of data set [6]: Flotation experiment in tap water without waterglass (stability of hydrogen peroxide). The note with it: no waterglass; for residual peroxide: 0 sample 15%. On the procedure: as §2, §3
In the case of this experiment, working was analogous to Example 3 but tap water was used instead of process water. […] At the same time, in the case of this experiment, the addition of waterglass as stabiliser is omitted.

Setting [7] is: 400 ppm active substance, pressure increase after 10 minutes, comparison sample without additive 9.8.

On to `CNC(=S)S` [MDTCMA, monomethylammonium monomethyl dithiocarbamate], for which, in the data set on catalase [1] (setting [7]), the “pressure in relative units” value is on record as above 9.0 mV.
In turn, `O=CCCCC=O` [glutaraldehyde] came in with an inhibition at 0.5 ppm in data set [2] (0.5 ppm, pH 7.0) of 6%. The same molecule displayed an inhibition at 2.5 ppm in data set [2] (2.5 ppm, pH 7.0) of 9%. The same molecule came in with an inhibition at 5 ppm in data set [2] (5 ppm, pH 7.0) of 11%.
In the case of `CNC(=S)S` [metamsodium, sodium monomethyldithiocarbamate], the “pressure in relative units” value in the data set with catalase [1] (setting [7]) came out at 5.0 mV.
On the same count and under the same terms, the value for `N#CSCSC#N` [MBT, methylene bisthiocyanate] was 6.2 mV.
With `O=C(C(Cl)=NO)c1ccc(O)cc1` [paraclox, 2-oxo-2-(4-hydroxyphenyl)-acethydroximic acid chloride], the “pressure in relative units” value in the data set on catalase [1] (10 ppm active substance, after 10 minutes) amounted to 4.2 mV; in the data set on catalase [1] (100 ppm active substance, after 10 minutes) it was 0.5 mV; in the data set with catalase [1] (setting [7]), 0.2 mV. In addition, the “pressure increase in relative pressure units” value in the data set on catalase [3] stood at 0.2 mV. Moreover, the residual peroxide content in data set [4] (Process water 1 (clear filtrate), 10 ppm, 0 min.) is given as 100%; in data set [4] (Process water 1 (clear filtrate), 10 ppm, 30 min.), 55.4%; in data set [4] (Process water 1 (clear filtrate), 10 ppm, 60 min.) it was 43.1%; in data set [4] (Process water 1 (clear filtrate), 10 ppm, 90 min.), 33.8%; in data set [4] (Process water 1 (clear filtrate), 10 ppm, 120 min.) it was 26.9%; in data set [4] (Process water 1 (clear filtrate), 100 ppm, 0 min.), 100%. The residual peroxide content in data set [4] (Process water 1 (clear filtrate), 100 ppm, 30 min.) is 95.4%; in data set [4] (Process water 1 (clear filtrate), 100 ppm, 60 min.), 87.7%; in data set [4] (Process water 1 (clear filtrate), 100 ppm, 90 min.) it was 87.7%; in data set [4] (Process water 1 (clear filtrate), 100 ppm, 120 min.) it was 86.1%; in data set [4] (Process water 2 (drum 1), 2 ppm, 0 min.), 100%; in data set [4] (Process water 2 (drum 1), 2 ppm, 30 min.) it was 3.6%. The residual peroxide content in data set [4] (Process water 2 (drum 1), 2 ppm, 60 min.) is 0%; in data set [4] (Process water 2 (drum 1), 2 ppm, 90 min.), 0%; in data set [4] (Process water 2 (drum 1), 2 ppm, 120 min.), 0%; in data set [4] (Process water 2 (drum 1), 20 ppm, 0 min.), 100%; in data set [4] (Process water 2 (drum 1), 20 ppm, 30 min.), 62.1%; in data set [4] (Process water 2 (drum 1), 20 ppm, 60 min.), 56.8%. The residual peroxide content turned out to be 50.8% in data set [4] (Process water 2 (drum 1), 20 ppm, 90 min.) and 47% in data set [4] (Process water 2 (drum 1), 20 ppm, 120 min.). For the same molecule, in data set [2] (0.2 ppm, pH 7.0), 0.2 ppm produced 0% inhibition. Further, 1 ppm produced 16% inhibition in data set [2] (1 ppm, pH 7.0). For the same molecule, the inhibition at 2 ppm in data set [2] (2 ppm, pH 7.0) is 63%. Moreover, the residual peroxide in data set [5] (paraclox 0.02%) is 21.4%; in data set [5] (paraclox 0.04%) it was 28.5%; in data set [5] (paraclox 0.08%) it was 49.7%; in data set [6] (paraclox 0.02%) it was 34.0%; in data set [6] (paraclox 0.04%) it was 41.0%; in data set [6] (paraclox 0.08%), 52.4%. Moreover, in data set [6], the “stabilising action on the peroxide (in words)” value is “very good stabilising action on the peroxide”.
In the case of `N#CC(Br)(Br)C(N)=O` [DBNPA, 2,2-dibromo-3-nitrilopropionamide], in the data set with catalase [1] (setting [7]), the “pressure in relative units” value is above 9.0 mV.
Regarding `OCl` [Sodium hypochlorite], the “action on the pure enzyme catalase (in words)” value in data set [2] (solution B (hydrogen peroxide in phosphate buffer)) is listed as “reacts in solution B with hydrogen peroxide with decomposition before catalase can be added”.
`OC[P+](CO)(CO)CO` [THPS, tetrakishydroxymethylphosphonium sulphate]: the “pressure in relative units” value with catalase [1] (setting [7]) is given as above 9.0 mV.
